Common to all, as to assay: relative viability (nuclei count vs DMSO), 5 days (fraction); higher = more cells survive
Compound in test [1]: C/C(=N\NC(=S)N1CCC1)/C2=CC=CC=N2
Summed up:
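After an overnight hold at 37 °C, lung cancer cell lines in 1536-well plates were pinned with five library-drug doses (not always all listed), each √10 from the next, on vehicle-anchored plates. The cells stayed 5 days without fresh medium, then a one-step fix, permeabilisation and Hoechst stain preceded 4× imaging and MetaXpress nuclear counts. A plate passed only with control CV under 25% and at least one doubling. Viability is the median, over plates, of treated-well nuclei relative to vehicle-well nuclei.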

Compound in test [2]: C/C(=N\NC(=S)N1CCC1)/C2=CC=CC=N2 + CC(=O)Nc1cccc(-n2c(=O)n(C3CC3)c(=O)c3c(Nc4ccc(I)cc4F)n(C)c(=O)c(C)c32)c1 [Trametinib] (partner 0.02 µM)
The method in brief:
(§1)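 Dosing by pin tool came one day after lung cancer cell lines were seeded in 1536-well plates, using either one drug or a fixed anchor-drug dose plus five library-drug doses (not always all listed) in √10 steps. After 5 days, nuclei were counted on 4× images. Relative viability is treated-well nuclei count divided by vehicle-well nuclei count, and values are medians of duplicate plates.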

Compound in test [3]: C/C(=N\NC(=S)N1CCC1)/C2=CC=CC=N2 + Cc1cc(Nc2cc(N3CCN(C)CC3)nc(Sc3ccc(NC(=O)C4CC4)cc3)n2)n[nH]1 [Tozasertib] (partner 0.1 µM)
The method in brief:
as §1

Compound in test [4]: C/C(=N\NC(=S)N1CCC1)/C2=CC=CC=N2 + NC(=O)Nc1cc(-c2cccc(F)c2)sc1C(=O)N[C@H]1CCCNC1 [AZD7762] (partner 0.2 µM)
Summed up:
as §1

Take NCI-H1651: the relative viability in test [1] (0.05 µM) is 0.19; in test [1] (0.1581 µM) it was 0.175; in test [1] (0.5 µM) it was 0.152; in test [1] (1.581 µM) it was 0.11; in test [1] (5 µM) it was 0.105; in test [2] (first compound 0.05 µM), 0.209. The relative viability came to 0.156 in test [2] (first compound 0.1581 µM); 0.137 in test [2] (first compound 0.5 µM); 0.102 in test [2] (first compound 1.581 µM); 0.0667 in test [2] (first compound 5 µM); 0.136 in test [3] (first compound 0.05 µM); 0.114 in test [3] (first compound 0.1581 µM). For the same cell line, the relative viability in test [3] (first compound 0.5 µM) turned out to be 0.108; in test [3] (first compound 1.581 µM), 0.0885; in test [3] (first compound 5 µM) it was 0.0771; in test [4] (first compound 0.05 µM), 0.0886; in test [4] (first compound 0.1581 µM) it was 0.101; in test [4] (first compound 0.5 µM), 0.0929. The relative viability in test [4] (first compound 1.581 µM) came to 0.0496; in test [4] (first compound 5 µM) it was 0.0554.
As for NCI-H1734, the relative viability was determined as 0.184 in test [1] (0.05 µM); 0.186 in test [1] (0.1581 µM); 0.189 in test [1] (0.5 µM); 0.13 in test [1] (1.581 µM); 0.116 in test [1] (5 µM); 0.153 in test [2] (first compound 0.05 µM). The relative viability in test [2] (first compound 0.1581 µM) was determined as 0.154; in test [2] (first compound 0.5 µM), 0.122; in test [2] (first compound 1.581 µM), 0.137; in test [2] (first compound 5 µM), 0.116; in test [3] (first compound 0.05 µM), 0.135; in test [3] (first compound 0.1581 µM) it was 0.15. Further, the relative viability in test [3] (first compound 0.5 µM) was 0.152; in test [3] (first compound 1.581 µM), 0.116; in test [3] (first compound 5 µM), 0.121; in test [4] (first compound 0.05 µM), 0.124; in test [4] (first compound 0.1581 µM), 0.128; in test [4] (first compound 0.5 µM), 0.139. Moreover, the relative viability in test [4] (first compound 1.581 µM) amounted to 0.0896; in test [4] (first compound 5 µM) it was 0.101.
For NCI-H3122, the relative viability in test [1] (0.05 µM) stood at 0.13; in test [1] (0.1581 µM), 0.121; in test [1] (0.5 µM), 0.129; in test [1] (1.581 µM), 0.168; in test [1] (5 µM) it was 0.141; in test [2] (first compound 0.05 µM) it was 0.0866. The relative viability in test [2] (first compound 0.1581 µM) amounted to 0.159; in test [2] (first compound 0.5 µM) it was 0.0947; in test [2] (first compound 1.581 µM), 0.116; in test [2] (first compound 5 µM), 0.125; in test [3] (first compound 0.05 µM) it was 0.0931; in test [3] (first compound 0.1581 µM) it was 0.0762. Further, the relative viability in test [3] (first compound 0.5 µM) was 0.0946; in test [3] (first compound 1.581 µM), 0.109; in test [3] (first compound 5 µM) it was 0.0776; in test [4] (first compound 0.05 µM) it was 0.0944; in test [4] (first compound 0.1581 µM), 0.0773; in test [4] (first compound 0.5 µM) it was 0.115. The relative viability in test [4] (first compound 1.581 µM) was 0.13; in test [4] (first compound 5 µM) it was 0.114.
As for CAL-12T, the relative viability amounted to 0.197 in test [1] (0.05 µM); 0.181 in test [1] (0.1581 µM); 0.16 in test [1] (0.5 µM); 0.149 in test [1] (1.581 µM); 0.133 in test [1] (5 µM); 0.0974 in test [2] (first compound 0.05 µM). For the same cell line, the relative viability turned out to be 0.126 in test [2] (first compound 0.1581 µM); 0.163 in test [2] (first compound 0.5 µM); 0.135 in test [2] (first compound 1.581 µM); 0.122 in test [2] (first compound 5 µM); 0.128 in test [3] (first compound 0.05 µM); 0.12 in test [3] (first compound 0.1581 µM). The relative viability in test [3] (first compound 0.5 µM) is 0.131; in test [3] (first compound 1.581 µM), 0.107; in test [3] (first compound 5 µM), 0.113; in test [4] (first compound 0.05 µM), 0.284; in test [4] (first compound 0.1581 µM), 0.226; in test [4] (first compound 0.5 µM) it was 0.281. Besides, the relative viability in test [4] (first compound 1.581 µM) turned out to be 0.206; in test [4] (first compound 5 µM), 0.159.
On to HCC-78, for which the relative viability is 0.459 in test [1] (0.05 µM); 0.472 in test [1] (0.1581 µM); 0.355 in test [1] (0.5 µM); 0.232 in test [1] (1.581 µM); 0.234 in test [1] (5 µM); 0.5 in test [2] (first compound 0.05 µM). The relative viability was determined as 0.377 in test [2] (first compound 0.1581 µM); 0.359 in test [2] (first compound 0.5 µM); 0.275 in test [2] (first compound 1.581 µM); 0.23 in test [2] (first compound 5 µM); 0.332 in test [3] (first compound 0.05 µM); 0.205 in test [3] (first compound 0.1581 µM). Moreover, the relative viability stood at 0.248 in test [3] (first compound 0.5 µM); 0.206 in test [3] (first compound 1.581 µM); 0.202 in test [3] (first compound 5 µM); 0.327 in test [4] (first compound 0.05 µM); 0.332 in test [4] (first compound 0.1581 µM); 0.226 in test [4] (first compound 0.5 µM). Further, the relative viability in test [4] (first compound 1.581 µM) was 0.169; in test [4] (first compound 5 µM), 0.174.
Turning to NCI-H2085, the relative viability was found to be 0.359 in test [1] (0.05 µM); 0.321 in test [1] (0.1581 µM); 0.357 in test [1] (0.5 µM); 0.299 in test [1] (1.581 µM); 0.313 in test [1] (5 µM); 0.183 in test [2] (first compound 0.05 µM). Moreover, the relative viability came out at 0.19 in test [2] (first compound 0.1581 µM); 0.216 in test [2] (first compound 0.5 µM); 0.153 in test [2] (first compound 1.581 µM); 0.224 in test [2] (first compound 5 µM); 0.372 in test [3] (first compound 0.05 µM); 0.366 in test [3] (first compound 0.1581 µM). Moreover, the relative viability in test [3] (first compound 0.5 µM) came out at 0.388; in test [3] (first compound 1.581 µM), 0.315; in test [3] (first compound 5 µM) it was 0.315; in test [4] (first compound 0.05 µM), 0.263; in test [4] (first compound 0.1581 µM), 0.278; in test [4] (first compound 0.5 µM) it was 0.293. The relative viability in test [4] (first compound 1.581 µM) amounted to 0.223; in test [4] (first compound 5 µM), 0.271.

The values are drawn from the supplement of paper PMC10307832.
